The values below come from patent publication US20200318079A1, “ACTIVITY-DEPENDENT EXPRESSION CONSTRUCTS AND METHODS OF USING THE SAME” (The Board of Trustees of the Leland Stanford Junior …, priority 2016, published 2020).

In this series the test system is c-Fos regulatory region. The series can be described thus: Activity-dependent expression of a reporter driven by c-Fos regulatory regions. The note with it: comparison of three regulatory regions. From the text:
The activity-dependent expression of a reporter construct driven by a regulatory region containing 761 bp of 5′ mouse c-Fos non-coding sequence, mouse c-Fos exon 1 and mouse c-Fos intron 1, as depicted in FIG. 9 (SEQ ID NO:7) was compared to: (1) the activity-dependent expression of the same reporter driven by the c-Fos 5′-non-coding sequence depicted in FIG. 10 (SEQ ID NO:1) and (2) the activity-dependent expression of the same reporter driven by the entire c-Fos gene followed by an IRES as depicted in FIG. 11 (SEQ ID NO:29).

On to “SEQ ID NO:7: reporter driven by regulatory region containing 761 bp of 5′ mouse c-Fos non-coding sequence, mouse c-Fos exon 1 and intron 1”, for which the “activity-dependent expression of the reporter” value is on record as “best for high, non-leaky expression”.
